Test results as given in ChEMBL document CHEMBL1126391 (Bioorg Med Chem Lett, 1992).

Tested on: C8166
Assay: In vitro anti-viral activity against C8166 cells (human T-cell line), expressed as the lowest test concentration affording complete protection to the culture (Infectious titre); 0.1-1
Assay type: functional
Details: not given

SMILES	IC100
CCN1c2ncccc2-c2ncc(C)n2-c2ccc(O)nc21	0.1 µM
CCN1c2ncccc2-c2ncc(C)n2-c2ccc(N(C)C)nc21	0.1 µM
CCN1c2ncccc2-c2nccn2-c2ccc(N3CCCC3)nc21	0.1 µM

Tested on: C8166
Assay: In vitro anti-viral activity against C8166 cells (human T-cell line), expressed as the lowest test concentration affording complete protection to the culture (Infectious titre);. 0.1-0.5
Assay type: functional
Details: not given

SMILES	IC100
CCN1c2ncccc2-c2nccn2-c2cccnc21	0.1 µM

Tested on: C8166
Assay: In vitro anti-viral activity against C8166 cells (human T-cell line), expressed as the lowest test concentration affording complete protection to the culture (Infectious titre);. 0.1-1
Assay type: functional
Details: not given

SMILES	IC100
CCN1c2ncccc2-c2nccn2-c2c(C)ccnc21	0.1 µM

Tested on: C8166
Assay: In vitro anti-viral activity against C8166 cells (human T-cell line), expressed as the lowest test concentration affording complete protection to the culture (Infectious titre)
Assay type: functional
Details: not given

SMILES	IC100
CCN1c2ncccc2-c2ncc(C)n2-c2ccc(OC)nc21	0.01 µM
CCN1c2ncccc2-c2nccn2-c2ccc(OC)nc21	0.1 µM
CCN1c2ncccc2-c2nccn2-c2ccc(N(C)C)nc21	0.1 µM

Tested on: C8166
Assay: In vitro anti-viral activity against C8166 cells (human T-cell line), expressed as the lowest test concentration affording complete protection to the culture (Infectious titre); 0.01-0.1
Assay type: functional
Details: not given

SMILES	IC100
CCN1c2ncccc2-c2ncc(C)n2-c2cccnc21	0.01 µM

Tested on: C8166
Assay: In vitro anti-viral activity against C8166 cells (human T-cell line), expressed as the lowest test concentration affording complete protection to the culture (Infectious titre); 0.1-0.5
Assay type: functional
Details: not given

SMILES	IC100
Cc1ccnc2c1NC(=O)c1cccnc1N2C1CC1 [NEVIRAPINE]	0.1 µM

Tested on: not listed separately
Assay: Concentration determined to be cytotoxic (reduced cell number as compared with controls), was recorded after 7 days incubation in the […] assay system
Assay type: cell-based
Details: human, H9 cells (H9/HIV-IIIB assay system); read-out: Cell toxicity

SMILES	MCC at 168 h
CCN1c2ncccc2-c2ncc(C)n2-c2ccc(OC)nc21	> 10 µM
CCN1c2ncccc2-c2ncc(C)n2-c2cccnc21	> 100 µM
Cc1ccnc2c1NC(=O)c1cccnc1N2C1CC1 [NEVIRAPINE]	> 10 µM
CCN1c2ncccc2-c2ncc(C)n2-c2ccc(O)nc21	> 100 µM
CCN1c2ncccc2-c2nccn2-c2ccc(OC)nc21	> 10 µM
CCN1c2ncccc2-c2nccn2-c2cccnc21	50 µM
CCN1c2ncccc2-c2ncc(C)n2-c2ccc(N(C)C)nc21	> 100 µM
CCN1c2ncccc2-c2nccn2-c2ccc(N3CCCC3)nc21	100 µM
CCN1c2ncccc2-c2nccn2-c2c(C)ccnc21	> 100 µM
CCN1c2ncccc2-c2nccn2-c2ccc(N(C)C)nc21	10 µM

Tested on: H9
Assay: In vitro antiviral activity against human T-cell line (H9) infected with HIV-1 IIIB was determined as the lowest concentration required to reduce tissue culture supernatant p24 levels on day 7 by 90%
Assay type: functional
Details: H9, 168 h

SMILES	IC90
CCN1c2ncccc2-c2ncc(C)n2-c2ccc(OC)nc21	0.0023 µM
Cc1ccnc2c1NC(=O)c1cccnc1N2C1CC1 [NEVIRAPINE]	0.078 µM
CCN1c2ncccc2-c2ncc(C)n2-c2ccc(O)nc21	0.11 µM
CCN1c2ncccc2-c2nccn2-c2ccc(OC)nc21	0.008 µM
CCN1c2ncccc2-c2ncc(C)n2-c2ccc(N(C)C)nc21	0.25 µM
CCN1c2ncccc2-c2nccn2-c2ccc(N3CCCC3)nc21	0.082 µM
CCN1c2ncccc2-c2nccn2-c2c(C)ccnc21	0.55 µM
CCN1c2ncccc2-c2nccn2-c2ccc(N(C)C)nc21	0.041 µM

Other lines, results leading:

IC90	SMILES
0.018 µM	CCN1c2ncccc2-c2ncc(C)n2-c2cccnc21
0.07 µM	CCN1c2ncccc2-c2nccn2-c2cccnc21

Target: T1, Human immunodeficiency virus type 1 reverse transcriptase (Human immunodeficiency virus 1, UniProt Q72547)
Assay: Ability to inhibit HIV-1 IIIB reverse transcriptase catalyzed incorporation of tritiated thymidine triphosphate onto a biotinylated rA.dT template primer
Details: not given

SMILES	IC50
CCN1c2ncccc2-c2ncc(C)n2-c2ccc(OC)nc21	0.19 µM
CCN1c2ncccc2-c2ncc(C)n2-c2ccc(N3CCCC3)nc21	2.7 µM
CCN1c2ncccc2-c2nccn2-c2ccc(O)nc21	23.9 µM
Cc1nnc2n1-c1cccnc1N(C1CC1)c1ncccc1-2	11.5 µM
CCN1c2ncccc2C(=O)Nc2c(C)ccnc21	10.3 µM
CCN1c2ncccc2-c2nnnn2-c2c(C)ccnc21	75.1 µM
CCN1c2ncccc2-c2ncc(C)n2-c2ccc(O)nc21	12.2 µM
CCN1c2ncccc2-c2nccn2-c2ccc(OC)nc21	0.598 µM
CCN1c2ncccc2-c2ncc(C)n2-c2ccc(N(C)C)nc21	2.4 µM
CCN1c2ncccc2-c2nccn2-c2ccc(N3CCCC3)nc21	3.9 µM
CCN1c2ncccc2-c2nnc(-c3ccccc3)n2-c2cccnc21	> 100 µM
CCN1c2ncccc2-c2nncn2-c2c(C)ccnc21	44.5 µM
CCN1c2ncccc2-c2nccn2-c2c(C)ccnc21	1.62 µM
CCN1c2ncccc2-c2nccn2-c2ccc(N(C)C)nc21	3.9 µM
Cc1ccnc2c1-n1ccnc1-c1cccnc1N2C1CC1	2.05 µM
CCN1c2ncccc2-c2nnc(C)n2-c2c(C)ccnc21	198 µM

The next lines start with the values.

IC50	SMILES
1.22 µM	CCN1c2ncccc2-c2ncc(C)n2-c2cccnc21
> 100 µM	CCN1c2ncccc2-c2nnc(CN(C)C)n2-c2cccnc21
72.8 µM	CCN1c2ncccc2-c2nncn2-c2cccnc21
38.9 µM	CCN1c2ncccc2-c2nnc(C)n2-c2cccnc21
> 100 µM	CCN1c2ncccc2-c2nnc(C(C)C)n2-c2cccnc21
5.63 µM	CCc1cnc2n1-c1cccnc1N(CC)c1ncccc1-2
56.6 µM	CCc1nnc2n1-c1cccnc1N(CC)c1ncccc1-2
11.2 µM	CCN1c2ncccc2-c2nccn2-c2cccnc21
11.2 µM	CCN1c2ncccc2-c2nc(C)cn2-c2cccnc21

Target: T1, Human immunodeficiency virus type 1 reverse transcriptase
Assay: Ability to inhibit HIV-1 IIIB reverse transcriptase catalyzed incorporation of tritiated thymidine triphosphate onto a biotinylated rN.dN template primer
Details: not given

SMILES	IC50
CCN1c2ncccc2-c2ncc(C)n2-c2ccc(OC)nc21	0.156 µM
CCN1c2ncccc2-c2ncc(C)n2-c2ccc(N3CCCC3)nc21	1.77 µM
CCN1c2ncccc2-c2nccn2-c2ccc(O)nc21	6.98 µM
Cc1nnc2n1-c1cccnc1N(C1CC1)c1ncccc1-2	7.82 µM
CCN1c2ncccc2C(=O)Nc2c(C)ccnc21	1.5 µM
CCN1c2ncccc2-c2nnnn2-c2c(C)ccnc21	6.72 µM
CCN1c2ncccc2-c2ncc(C)n2-c2ccc(O)nc21	3.2 µM
CCN1c2ncccc2-c2nccn2-c2ccc(OC)nc21	0.258 µM
CCN1c2ncccc2-c2ncc(C)n2-c2ccc(N(C)C)nc21	1.1 µM
CCN1c2ncccc2-c2nccn2-c2ccc(N3CCCC3)nc21	2 µM
CCN1c2ncccc2-c2nccn2-c2c(C)ccnc21	0.245 µM
CCN1c2ncccc2-c2nccn2-c2ccc(N(C)C)nc21	2.19 µM
Cc1ccnc2c1-n1ccnc1-c1cccnc1N2C1CC1	0.217 µM

Continued, values first:

IC50	SMILES
0.425 µM	CCN1c2ncccc2-c2ncc(C)n2-c2cccnc21
> 100 µM	CCN1c2ncccc2-c2nnc(CN(C)C)n2-c2cccnc21
62.6 µM	CCN1c2ncccc2-c2nnc(C(C)C)n2-c2cccnc21
1.1 µM	CCc1cnc2n1-c1cccnc1N(CC)c1ncccc1-2
20.2 µM	CCc1nnc2n1-c1cccnc1N(CC)c1ncccc1-2
0.775 µM	CCN1c2ncccc2-c2nccn2-c2cccnc21
2.75 µM	CCN1c2ncccc2-c2nc(C)cn2-c2cccnc21
